15 molecules from patent US20220289691A1, “5-AMINO-SUBSTITUTED PYRAZOLES AND TRIAZOLES AS PEST CONTROL AGENTS” (Bayer Aktiengesellschaft, priority 2019, published 2022) can be followed below.

Type in all cases: in vivo
One experiment concerns Diabrotica balteata. The experiment can be described thus: Diabrotica balteata spray test. The conditions noted are these: 168 h, beetle larvae on wheat, after 7 days, read-out: efficacy (wheat plant growth); for pest or weed control at 100 g/ha: 100 g/ha (=32 μg/cavity); for pest or weed control at 500 g/ha: 500 g/ha (=160 μg/cavity). The method in brief: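 Germinated wheat seedlings in agar multiwell plates were sprayed with compound in acetone/DMF with emulsifier-containing water, then infested with 10-20 Diabrotica balteata larvae. After 7 days, efficacy (%) scored by plant growth: 100% equals untreated, uninfested control, 0% no plants grown.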

Another experiment relates to Meloidogyne incognita. The experiment can be described thus: Meloidogyne incognita test. The conditions noted are these: 336 h, lettuce, after 14 days, read-out: nematicidal efficacy (formation of galls). As for the experimental part: Meloidogyne incognita Test Solvent: 125.0 parts by weight of acetone
To produce a suitable active compound formulation, 1 part by weight of active compound is mixed with the stated amount of solvent and the concentrate is diluted to the desired concentration with water.
Vessels are filled with sand, active compound solution, an egg/larvae suspension of the southern root-knot nematode (Meloidogyne incognita) and lettuce seeds. The lettuce seeds germinate and the plants develop. The galls develop on the roots.
After 14 days, the nematicidal efficacy in % is determined by the formation of galls. 100% means that no galls were found; 0% means that the number of galls on the treated plants corresponds to the untreated control.

The subject of a further experiment is Spodoptera frugiperda. The experiment can be described thus: Spodoptera frugiperda spray test. As to conditions: foliar, 168 h, 100 g/ha, maize leaf discs, after 7 days, read-out: efficacy (caterpillars killed). The gist of the method:
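Compound was dissolved in acetone/dimethylformamide and diluted with water containing 1000 ppm alkylaryl polyglycol ether emulsifier to test concentrations. Maize leaf discs were sprayed, dried and infested with fall armyworm caterpillars. Efficacy (% caterpillars killed) was scored after 7 days.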

In the next experiment the test system is Ctenocephalides felis. The experiment can be described thus: Ctenocephalides felis oral test. The conditions noted are these: 48 h, 100 ppm in citrated cattle blood, adult cat fleas, after 2 days, read-out: efficacy (kill). As for the experimental part: Ctenocephalides felis—Oral Test
Solvent: Dimethyl Sulfoxide
To produce a suitable active compound formulation, 10 mg of active compound are mixed with 0.5 ml of dimethyl sulfoxide. Dilution with citrated cattle blood gives the desired concentration.
About 20 unfed adult cat fleas (Ctenocephalides felis) are placed into a chamber which is closed at the top and bottom with gauze. A metal cylinder whose bottom end is closed with parafilm is placed onto the chamber. The cylinder contains the blood/active compound formulation, which can be imbibed by the fleas through the parafilm membrane.
After 2 days, the kill in % is determined. 100% means that all of the fleas have been killed; 0% means that none of the fleas have been killed.

A further experiment concerns Phaedon cochleariae. The experiment can be described thus: Phaedon cochleariae spray test. The conditions noted are these: foliar, 168 h, 100 g/ha, Chinese cabbage leaf discs, after 7 days, read-out: efficacy (beetle larvae killed). As for the experimental part:
Phaedon cochleariae—Spray Test Solvent: 78.0 parts by weight of acetone • • 1.5 parts by weight of dimethylformamide Emulsifier: alkylaryl polyglycol ether
To produce a suitable active compound formulation, 1 part by weight of active compound is dissolved using the stated parts by weight of solvent and made up with water containing an emulsifier concentration of 1000 ppm until the desired concentration is attained. To produce further test concentrations, the formulation is diluted with emulsifier-containing water.
Discs of Chinese cabbage leaves (Brassica pekinensis) are sprayed with an active compound formulation of the desired concentration and, after drying, populated with larvae of the mustard beetle (Phaedon cochleariae).
After 7 days, the efficacy in % is determined. 100% means that all the beetle larvae have been killed; 0% means that no beetle larvae have been killed.

On to `CNc1nc(-c2ccc(C=NN=C3SCC(=O)N3c3ccccc3C(C)C)c(F)c2)nn1-c1ccc(OC(F)(F)F)cc1` [Compound I-105], for which the pest or weed control at 100 g/ha in the experiment with Diabrotica balteata and in the experiment on Spodoptera frugiperda was 100% throughout. Further, the pest or weed control at 20 ppm in the experiment with Meloidogyne incognita turned out to be 90%.

Consider `CCN(CC)c1nc(-c2ccc(C=NNC(=S)Nc3ccccc3C(C)C)cc2)nn1-c1ccc(OC(F)(F)F)cc1` [Compound I-020], for which the pest or weed control at 125 g/ha in the experiment on Diabrotica balteata (125 g/ha (=40 μg/cavity)) was found to be 80%. In addition, the pest or weed control at 500 g/ha with Diabrotica balteata came to 100%. In addition, the pest or weed control at 20 ppm with Meloidogyne incognita was determined as 100%. The pest or weed control at 100 g/ha with Spodoptera frugiperda came out at 100%.

Consider `CNc1nc(-c2ccc(C=NNC(=S)Nc3ccccc3C(C)C)cc2F)nn1-c1ccc(OC(F)(F)F)cc1` [Compound I-109], for which the pest or weed control at 100 g/ha in the experiment with Diabrotica balteata and in the experiment on Spodoptera frugiperda was 100% throughout. In addition, in the experiment on Meloidogyne incognita, the pest or weed control at 20 ppm is 90%.

For `CNc1nc(-c2ccc(C=NNC(=S)Nc3ccccc3C(C)C)c(F)c2)nn1-c1ccc(OC(F)(F)F)cc1` [Compound I-104], the pest or weed control at 100 g/ha in the experiment on Diabrotica balteata and with Spodoptera frugiperda was 100% throughout. Moreover, in the experiment with Meloidogyne incognita, the pest or weed control at 20 ppm turned out to be 90%.

For the molecule `CC(C)Nc1nc(-c2ccc(C=NN=C3SCC(=O)N3c3ccccc3C(C)C)cc2)nn1-c1ccc(OC(F)(F)F)cc1` [Compound I-048], in the experiment on Meloidogyne incognita, the pest or weed control at 20 ppm was 90%.

`CNc1nc(-c2ccc(C=NNC(=S)Nc3ccccc3C(C)C)cc2Cl)nn1-c1ccc(OC(F)(F)F)cc1` [Compound I-108]: the pest or weed control at 100 g/ha in the experiment with Diabrotica balteata and in the experiment on Spodoptera frugiperda was 100% throughout. Further, in the experiment on Meloidogyne incognita, the pest or weed control at 20 ppm is 90%.

Regarding `CCNc1nc(-c2ccc(C=NN=C3SCC(=O)N3c3ccccc3C(C)C)cc2)nn1-c1ccc(OC(F)(F)F)cc1` [Compound I-047], the pest or weed control at 20 ppm in the experiment on Meloidogyne incognita was 90%.

As for `CCC(=O)Nc1nc(-c2ccc(C(C)=NNC(=S)Nc3ccccc3C(C)C)cc2)nn1-c1ccc(OC(F)(F)F)cc1` [Compound I-016], in the experiment with Ctenocephalides felis, the pest or weed control at 100 ppm was determined as 95%. Also, the pest or weed control at 100 g/ha with Phaedon cochleariae and in the experiment with Spodoptera frugiperda was 100% each time.

With `CNc1nc(-c2cc(F)c(C=NN=C3SCC(=O)N3c3ccccc3C(C)C)cc2F)nn1-c1ccc(OC(F)(F)F)cc1` [Compound I-111], the pest or weed control at 100 g/ha in the experiment on Diabrotica balteata and with Spodoptera frugiperda was 100% in each case. Also, in the experiment with Meloidogyne incognita, the pest or weed control at 20 ppm amounted to 100%.

In the case of `CC(C)c1ccccc1NC(=S)NN=Cc1ccc(-c2nc(NC(=O)C3CC3)n(-c3ccc(OC(F)(F)F)cc3)n2)cc1` [Compound I-013], the pest or weed control at 100 ppm in the experiment on Ctenocephalides felis stood at 100%. For the same molecule, the pest or weed control at 100 g/ha in the experiment with Phaedon cochleariae and in the experiment on Spodoptera frugiperda was 100% each time.

On to `CNc1nc(-c2cc(F)c(C=NNC(=S)Nc3ccccc3C(C)C)c(F)c2)nn1-c1ccc(OC(F)(F)F)cc1` [Compound I-107], for which the pest or weed control at 100 g/ha in the experiment with Diabrotica balteata and with Spodoptera frugiperda was 100% throughout. In addition, the pest or weed control at 20 ppm with Meloidogyne incognita was found to be 90%.

Turning to `CC(C)c1ccccc1N1C(=O)CSC1=NN=Cc1ccc(-c2nc(N)n(-c3ccc(OC(F)(F)F)cc3)n2)cc1` [Compound I-056], in the experiment with Diabrotica balteata, the pest or weed control at 100 g/ha turned out to be 100% and the pest or weed control at 500 g/ha is 100%. In the experiment on Meloidogyne incognita, the pest or weed control at 20 ppm is 90%. Moreover, the pest or weed control at 100 g/ha in the experiment on Spodoptera frugiperda worked out at 100%.

As for `CC(C)Nc1nc(-c2ccc(C=NNC(=S)Nc3ccccc3C(C)C)cc2)nn1-c1ccc(OC(F)(F)F)cc1` [Compound I-052], the pest or weed control at 100 g/ha in the experiment with Diabrotica balteata and in the experiment on Spodoptera frugiperda was 100% in each case. Also, in the experiment on Meloidogyne incognita, the pest or weed control at 20 ppm stood at 100%.

With `CC(=O)Nc1nc(-c2ccc(C=NNC(=S)Nc3ccccc3C)cc2)nn1-c1ccc(OC(F)(F)F)cc1` [Compound I-010], the pest or weed control at 100 ppm in the experiment on Ctenocephalides felis stood at 100%. For the same molecule, the pest or weed control at 100 g/ha in the experiment with Phaedon cochleariae and in the experiment with Spodoptera frugiperda was 100% throughout.

For the molecule `CC(=O)Nc1nc(-c2ccc(C(C)=NNC(=S)Nc3ccccc3C)cc2)nn1-c1ccc(OC(F)(F)F)cc1` [Compound I-014], in the experiment with Ctenocephalides felis, the pest or weed control at 100 ppm turned out to be 80%. Moreover, the pest or weed control at 100 g/ha in the experiment with Phaedon cochleariae and with Spodoptera frugiperda was 100% each time.
